US8426406B2, “Glucocorticoid receptor agonist comprising 2,2,4-trimethyl-6-phenyl-1,2-dihydroquinoline derivatives having substituted oxy group” (Santen Pharmaceutical Co., Ltd., priority 2008, dated 2013)

What was measured:
[1] = test system: IL-6 production induced by lipopolysaccharide (LPS) in human corneal epithelial cells; experiment: Evaluation test for GR agonist activity: inhibition of LPS-induced IL-6 production in human corneal epithelial cells (HCE-T); type: cell-based; conditions: Corneal epithelial cell, 10 μL of 100 μM test compound solution per well, 4 hours incubation, efficacy relative to DEX
Procedure, shortened: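 SV40-immortalized HCE-T cells were treated with test compound (100 μM solution, stock before dilution into well) plus LPS (1 μg/mL solution, likewise pre-dilution) for 4 hours in 10% FBS-DMEM/F12. IL-6 in supernatants was measured by HTRF. Inhibition was calculated relative to LPS-plus-DMSO and no-LPS controls, and efficacy was expressed as % of DEX inhibition.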

[2] = test system: allergic conjunctivitis model in mice; experiment: Inhibitory effect on the vascular hyper-permeability in allergic conjunctivitis model; type: in vivo; conditions: Mus musculus, 1% (W/V) test compound suspension instilled to the right eye three times before ovalbumin instillation, dye leakage vs vehicle, mean of 5-6 eyes, read-out: The inhibition ratio of the vascular hyper-permeability (%)
Protocol: In order to evaluate anti-allergic effect, inhibitory effect on the vascular hyper-permeability in allergic conjunctivitis model in mice was examined. This effect was calculated based on dye leakages of vehicle-treated group (control group) and test compound-treated group.
By adding 0.5% polysorbate 80/saline to the test compound, a 1% (W/V) test compound suspension was prepared.
1) Ovalbumin absorbed on aluminum hydroxide gel was dissolved in saline (20 μg ovalbumin/mL), and male BALE/c mice, 6 weeks old, were actively sensitized to the antigen by intraperitoneal injections of 500 μL of it.
2) On the 6th day from sensitization, sensitized mice were boosted by additional intraperitoneal injections of 500 μL ovalbumin absorbed on aluminum hydroxide gel (20 μg ovalbumin/mL).
3) On the 11th day, 12th day, 13th day, 14th day and 15th day from the first sensitization, allergic conjunctivitis were induced by installations to the right eyes of the mice of […] of 50% glycerol solution containing 15% (W/V) ovalbumin.
4) […] of test compound suspension per eye was instilled to the right eye of the above mice 15 min, 1 hr and 3 hrs before ovalbumin instillation (three times) on the 15th day from sensitization. In vehicle-treated group (control group), the mice were instilled with 0.5% polysorbate 80/saline in substitution for test compound suspension.
5) Just before ovalbumin instillation on the 15th day from sensitization, all animals received a tail intravenous injection of 0.1% Evans blue dye. The right periocular tissues of the mice, which were the leaked parts of dye, were collected 30 min after ovalbumin instillation. The dye was extracted from the tissues with the dye extraction liquid. Then the absorbance of the dye extract was measured. The dye leakage was calculated from the absorbance value, and the inhibition ratio of the vascular hyper-permeability of test compound-treated group was calculated according to calculation equation 1. The inhibition ratio of the vascular hyper-permeability of test compound-treated group(%)=(1−Ax/Ao)×100 (Calculation Equation 1) Ao: Dye leakage in vehicle-treated group (control group) Ax: Dye leakage in test compound-treated group (Test Results and Discussion)

[3] = test system: choroidal neovascularization (CNV) model in rats; experiment: Evaluation test for inhibitory effect of choroidal neovascularization (laser induced CNV model in rats); type: in vivo; conditions: Brown Norway rats, 1% (w/v) suspension eye drops four times a day or 20 mg/mL subconjunctival injection (route not given), vs vehicle, mean of 7-8 eyes in 4 rats
Protocol: The choroidal neovascularization (CNV) model in rats is known as one of the popular methods for evaluating the CNV inhibitory effect of drugs. This method is reported in Graefe's Arch. Cli. Exp. Ophthalmol., 235, 313-319 (1997). According to this method, the CNV examinations were performed to evaluate the CNV inhibitory effect of test compounds by comparing the incidence rates of CNV in vehicle group (control group) with test compound-treated groups.
For eye drop administration, a 1% (w/v) test compound suspension was prepared by adding 0.5% polysorbate 80/saline to the test compound. For subconjunctival injection, a 20 mg/mL test compound suspension was prepared by adding 0.5% hydrogenated castor oil/saline to the test compound.
1) Brown Norway male rats (7-8 weeks, 140-240 g) were anesthetized with intramuscular injection (1 mL/kg) of the mixed solution (5% ketamine HCl: 2% xylazine HCl=7:1).
2) After mydriasis using tropicamide phenylephrine hydrochloride eye drops (trade name Mydrin P), laser photocoagulation of bruch's membrane in rats was performed with krypton laser photocoagulation machine. Laser irradiation was performed at 8-9 points per eye avoiding thick retinal blood vessels in ocular fundus and focusing on the depth of retina. The conditions were 100 μm spot size, 100 mW power, 0.1 second duration.
3) After laser photocoagulation, photographs of ocular fundus were taken and the laser photocoagulation (laser irradiation) points were confirmed.
1) In case of eye drops administration, a test compound suspension was administrated four times a day from laser irradiation day (the 1st day) to the 8th day. In case of subconjunctival injection, a 50 μL test compound suspension was injected into conjunctivae just after laser irradiation.
2) In vehicle group (control group), 0.5% polysorbate 80/saline or 0.5% hydrogenated castor oil/saline was used instead of a test compound suspension. And the test was performed according to the method 1).
1) 7 days after laser irradiation, 0.1 mL of 10% fluorescein was injected into rat tail vein and fluorescein angiography was performed.
2) When the fluorescent leakage was not detected in the fluorescent angiography, the spot was judged to be a negative spot. When the fluorescent leakage was detected, the spot was judged to be a positive spot. When the fluorescent leakage was detected as a little leakage, two spots were counted as one positive spot.
3) The neovascular incidence rate was calculated according to the equation 1. According to the equation 2, the ratio of neovascular incidence rate in test compound group to vehicle group was calculated. Neovascular incidence rate(%)=(Positive spots/all spots)×100 (Equation 1) Angiogenic inhibition ratio in test compound group(%)=(1−Ax/Ao)×100 (Equation 2)
Ao: Neovascular incidence rate in vehicle group (control group)
Ax: Neovascular incidence rate in test compound group

## COc1cc(OC(=O)c2cccnc2)ccc1-c1ccc2c(c1CNc1cc(F)ccc1C)C(C)=CC(C)(C)N2 [Compound 1-105, 5-(5-Fluoro-2-methylphenylaminomethyl)-6-[2-methoxy-4-(pyridin-3-ylcarbonyloxy)phenyl]-2,2,4-trimethyl-1,2-dihydroquinoline]
[1]
  Emax: 97%
[2]
  inhibition in vivo at 10000 µg/mL: 18%

## COc1ccccc1NCc1c(-c2ccc(OC(=O)c3cccnc3)cc2OC)ccc2c1C(C)=CC(C)(C)N2 [Compound 1-97, 5-(2-Methoxyphenylaminomethyl)-6-[2-methoxy-4-(pyridin-3-ylcarbonyloxy)phenyl]-2,2,4-trimethyl-1,2-dihydroquinoline]
[1]
  Emax: 81%
[2]
  inhibition in vivo at 10000 µg/mL: 21%

## COc1ccccc1C(=O)Oc1ccc(-c2ccc3c(c2COC(=O)c2ccc(C)s2)C(C)=CC(C)(C)N3)c(OC)c1 [Compound 1-136, 6-[2-Methoxy-4-(2-methoxybenzoyloxy)phenyl]-5-(5-methylthiophen-2-ylcarbonyloxymethyl)-2,2,4-trimethyl-1,2-dihydroquinoline]
[1]
  Emax: 89%
[2]
  inhibition in vivo at 10000 µg/mL: 15%

## COc1ccccc1NCc1c(-c2ccc(OC(=O)c3ccncc3)cc2OC)ccc2c1C(C)=CC(C)(C)N2 [Compound 1-102, 5-(2-Methoxyphenylaminomethyl)-6-[2-methoxy-4-(pyridin-4-ylcarbonyloxy)phenyl]-2,2,4-trimethyl-1,2-dihydroquinoline]
[1]
  Emax: 99%
[2]
  inhibition in vivo at 10000 µg/mL: 16%

## COc1cc(OC(=O)c2ccco2)ccc1-c1ccc2c(c1COC(=O)c1ccc(C)s1)C(C)=CC(C)(C)N2 [Compound 1-138, 6-[4-(Furan-2-ylcarbonyloxy)-2-methoxyphenyl]-5-(5-methylthiophen-2-ylcarbonyloxymethyl)-2,2,4-trimethyl-1,2-dihydroquinoline]
[1]
  Emax: 79%
[2]
  inhibition in vivo at 10000 µg/mL: 16%

## COc1cc(OC(=O)c2ccccc2Cl)ccc1-c1ccc2c(c1COC(=O)c1ccc(C)s1)C(C)=CC(C)(C)N2 [Compound 1-139, 6-[4-(2-Chlorobenzoyloxy)-2-methoxyphenyl]-5-(5-methylthiophen-2-ylcarbonyloxymethyl)-2,2,4-trimethyl-1,2-dihydroquinoline]
[1]
  Emax: 104%
[2]
  inhibition in vivo at 10000 µg/mL: 15%

## COc1cc(OC(=O)c2ccccc2Cl)ccc1-c1ccc2c(c1COc1cc(F)ccc1C)C(C)=CC(C)(C)N2 [Compound 1-7, 6-[4-(2-Chlorobenzoyloxy)-2-methoxyphenyl]-5-(5-fluoro-2-methylphenoxymethyl)-2,2,4-trimethyl-1,2-dihydroquinoline]
[1]
  Emax: 78%
[2]
  inhibition in vivo at 10000 µg/mL: 28%

## COc1cc(OC(=O)c2cccnc2)ccc1-c1ccc2c(c1COC(=O)c1ccc(C)s1)C(C)=CC(C)(C)N2 [Compound 1-137, 6-[2-Methoxy-4-(pyridin-3-ylcarbonyloxy)phenyl]-5-(5-methylthiophen-2-ylcarbonyloxymethyl)-2,2,4-trimethyl-1,2-dihydroquinoline]
[1]
  Emax: 83%
[2]
  inhibition in vivo at 10000 µg/mL: 26%

## COc1cc(OC(=O)c2ccncc2)ccc1-c1ccc2c(c1COc1cc(F)ccc1C)C(C)=CC(C)(C)N2 [Compound 1-33, 5-(5-Fluoro-2-methylphenoxymethyl)-6-[2-methoxy-4-(pyridin-4-ylcarbonyloxy)phenyl]-2,2,4-trimethyl-1,2-dihydroquinoline]
[1]
  Emax: 82%
[3]
  Angiogenic inhibition ratio (%): 29%

## CCC(=O)Oc1ccc(OC)c(-c2ccc3c(c2COc2cc(F)ccc2C)C(C)=CC(C)(C)N3)c1 [Compound 1-18, 5-(5-Fluoro-2-methylphenoxymethyl)-6-(2-methoxy-5-propionyloxyphenyl)-2,2,4-trimethyl-1,2-dihydroquinoline]
[1]
  Emax: 77%
[2]
  inhibition in vivo at 10000 µg/mL: 30%

## COc1cc(OC(=O)c2ccoc2)ccc1-c1ccc2c(c1COc1cc(F)ccc1C)C(C)=CC(C)(C)N2 [Compound 1-25, 5-(5-Fluoro-2-methylphenoxymethyl)-6-[4-(furan-3-ylcarbonyloxy)-2-methoxyphenyl]-2,2,4-trimethyl-1,2-dihydroquinoline]
[1]
  Emax: 83%
[3]
  Angiogenic inhibition ratio (%): 50%
